Measured values from patent US9179674B2, “Macrocyclic picolinamide compounds with fungicidal activity” (DOW AGROSCIENCES LLC, priority 2013, dated 2015).
Like-named read-outs stand apart in the source and are kept apart here.

How the values were obtained:
[1] = test system: Mycosphaerella graminicola; Anamorph: Septoria tritici; test: Leaf Blotch of Wheat fungicidal activity (SEPTTR); format: in vivo; conditions: Zymoseptoria tritici; for pest or weed control at 100 ppm: rate 100 ppm; for pest or weed control at 121.5 g/ha: rate 121.5 g/H
Procedure, shortened: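 Acetone solutions diluted with nine volumes of water containing 110 ppm Triton X-100, sprayed to run-off on first-leaf wheat seedlings (Yuma), inoculated with S. tritici before or after treatment. Plants held in dew chambers, then in a 20 °C greenhouse. Disease severity (0–100%) scored when untreated plants fully symptomatic; % control relative to untreated.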

[2] = test system: Puccinia triticina; test: Wheat Brown Rust fungicidal activity (PUCCRT); format: in vivo; conditions: Puccinia triticina; for pest or weed control at 100 ppm: rate 100 ppm; for pest or weed control at 121.5 g/ha: rate 121.5 g/H
Procedure, shortened: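 Yuma wheat seedlings at first-leaf stage sprayed to run-off (acetone solution in water with 110 ppm Triton X-100) or track-sprayed as EC with 0.1% Trycol 5941; inoculated with P. triticina spores before or after treatment. Overnight dark dew at 22° C., then greenhouse 24° C.; disease severity 0–100% gives percent control vs untreated.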

[3] = 24 h, 1 Day Protectant, read-out: Disease control SEPTTR 1DP
[4] = 72 h, 3 Day Curative, read-out: Disease control SEPTTR 3DC
[5] = 24 h, 1 Day Protectant, read-out: Disease control PUCCRT 1DP
[6] = 72 h, 3 Day Curative, read-out: Disease control PUCCRT 3DC

melting point	Structure (SMILES)	pest or weed control at 100 ppm [1, 3]	pest or weed control at 121.5 g/ha [1, 3]	pest or weed control at 100 ppm [1, 4]	pest or weed control at 121.5 g/ha [1, 4]	pest or weed control at 100 ppm [2, 5]	pest or weed control at 121.5 g/ha [2, 5]	pest or weed control at 100 ppm [2, 6]	pest or weed control at 121.5 g/ha [2, 6]
59 to 64 °C	COc1ccnc(C(=O)N[C@H]2COC[C@H](CCc3ccccc3)[C@@H](OCCCC(F)(F)F)[C@H](C)OC2=O)c1OC(C)=O [Compound F49]	80 to 100%	80 to 100%	80 to 100%	80 to 100%	80 to 100%	80 to 100%	80 to 100%	0 to 80%
59 to 64 °C	COc1ccnc(C(=O)N[C@H]2COC[C@H](Cc3ccc(F)cc3)[C@@H](OC(=O)C3CC3)[C@H](C)OC2=O)c1OCOC(C)=O [Compound F90]	80 to 100%		80 to 100%		80 to 100%		80 to 100%	
67 to 72 °C	COc1ccnc(C(=O)N[C@H]2COC[C@H](Cc3ccc(C)cc3)[C@@H](OC(=O)C(C)C)[C@H](C)OC2=O)c1O [Compound F12]	80 to 100%		80 to 100%		80 to 100%		80 to 100%	
61 to 68 °C	COc1ccnc(C(=O)N[C@H]2COC[C@H](Cc3cccc4ccccc34)[C@@H](OCCCC(F)(F)F)[C@H](C)OC2=O)c1OCOC(C)=O [Compound F84]	80 to 100%				80 to 100%		80 to 100%	
78 to 81 °C	COc1ccnc(C(=O)N[C@H]2COC[C@H](CCc3ccccc3)[C@@H](OCCCC(F)(F)F)[C@H](C)OC2=O)c1O [Compound F2]	80 to 100%		80 to 100%		80 to 100%		0 to 80%	
132 to 134 °C	COc1ccnc(C(=O)N[C@H]2COC[C@H](CC3CCCC3)[C@@H](OCC(C)C)[C@H](C)OC2=O)c1O [Compound F46]	80 to 100%		80 to 100%		80 to 100%		80 to 100%	
57 to 60 °C	COc1ccnc(C(=O)N[C@H]2COC[C@H](Cc3ccc(Cl)cc3Cl)[C@@H](OC(=O)C(C)C)[C@H](C)OC2=O)c1OCOC(=O)C(C)C [Compound F119]	80 to 100%		80 to 100%		80 to 100%		80 to 100%	
88 to 93 °C	COc1ccnc(C(=O)N[C@H]2COC[C@H](Cc3ccc(C)cc3)[C@@H](OC(=O)C(C)C)[C@H](C)OC2=O)c1OC(C)=O [Compound F54]	80 to 100%	80 to 100%	80 to 100%	80 to 100%	80 to 100%	80 to 100%	80 to 100%	0 to 80%
39 to 43 °C	CCCCCO[C@@H]1[C@@H](Cc2ccc(C)cc2)COC[C@H](NC(=O)c2nccc(OC)c2OCOC(C)=O)C(=O)O[C@H]1C [Compound F88]	80 to 100%		80 to 100%		80 to 100%		80 to 100%	

Structure (SMILES)	melting point	pest or weed control at 100 ppm [1, 3]	pest or weed control at 121.5 g/ha [1, 3]	pest or weed control at 100 ppm [1, 4]	pest or weed control at 121.5 g/ha [1, 4]	pest or weed control at 100 ppm [2, 5]	pest or weed control at 121.5 g/ha [2, 5]	pest or weed control at 100 ppm [2, 6]	pest or weed control at 121.5 g/ha [2, 6]
COc1ccnc(C(=O)N[C@H]2COC[C@H](Cc3cccc4ccccc34)[C@@H](OC(=O)C(C)C)[C@H](C)OC2=O)c1O [Compound F5, (3S,6S,7R,8S)-3-(3-hydroxy-4-methoxypicolin-amido)-6-methyl-8-(naphthalen-1-ylmethyl)-4-oxo-1,5-dioxonan-7-yl isobutyrate]	139 to 142 °C	80 to 100%		0 to 80%		0 to 80%		0 to 80%	
COc1ccnc(C(=O)N[C@H]2COC[C@H](Cc3cccc4ccccc34)[C@@H](OC(=O)C(C)C)[C@H](C)OC2=O)c1OC(C)=O [Compound F51, (3S,6S,7R,8S)-3-(3-acetoxy-4-methoxypicolinamido)-6-methyl-8-(naphthalen-1-ylmethyl)-4-oxo-1,5-dioxonan-7-yl isobutyrate]	104 to 108 °C	80 to 100%		80 to 100%		80 to 100%		0 to 80%	
